According to patent publication US20020026052A1, “3-cyanoquinolines, 3-cyano-1,6-naphthyridines, and 3-cyano-1,7-naphthyridines as protein kinase inhibitors” (American Home Products Corporation, priority 2000, published 2002):

Row | Structure (SMILES) | melting point
1 | CN1CCN(Cc2ccc(-c3ccc4c(Nc5ccc(Sc6nccn6C)c(Cl)c5)c(C#N)cnc4c3)cc2)CC1 [Example 135, 4-{3-chloro-4-[(1-methylimidazol-2-yl)sulfanyl]anilino}-7-{4-[(4-methyl-1-piperazinyl)methyl]phenyl}-3-quinolinecarbonitrile] | 202 to 203 °C
2 | Cn1ccnc1Sc1ccc(Nc2c(C#N)cnc3cc(-c4ccc(CN5CCN(C(=O)OC(C)(C)C)CC5)cc4)ccc23)cc1Cl [Example 137, tert-butyl 4-{4-[4-({3-chloro-4-[(1-methylimidazol-2-yl)sulfanyl]phenyl}amino)-3-cyano-7-quinolinyl]benzyl}-1-piperazinecarboxylate] | 184 to 186 °C
3 | COc1cc(Nc2c(C#N)cnc3cc(-c4ccc(CN5CC[S+]([O-])CC5)cc4)ccc23)c(Cl)cc1Cl [Example 151, 4-[(2,4-Dichloro-5-methoxyphenyl)amino]-7-{4-[(1-oxido-4-thiomorpholinyl)methyl]phenyl}-3-quinolinecarbonitrile] | 244 to 247 °C
4 | Cn1ccnc1Sc1ccc(Nc2c(C#N)cnc3cc(-c4ccc(CN5CCOCC5)o4)ccc23)cc1Cl [Example 154, 4-{3-Chloro-4-[(1-methyl-1H-imidazol-2-yl)sulfanyl]anilino}-7-[5-(4-morpholinylmethyl)-2-furyl]-3-quinolinecarbonitrile] | 224 to 226 °C
5 | Cn1ccnc1Sc1ccc(Nc2c(C#N)cnc3cc(-c4ccc(CN5CCN(CCO)CC5)o4)ccc23)cc1Cl [Example 157, 4-{3-Chloro-4-[(1-methyl-1H-irnidazol-2-yl)sulfanyl]anilino}-7-(5-{[4-(2-hydroxyethyl)-1-piperazinyl]methyl}-2-furyl)-3-quinolinecarbonitrile] | 206 to 209 °C
6 | Cn1ccnc1Sc1ccc(Nc2c(C#N)cnc3cc(-c4ccc(CN5CCC(O)CC5)s4)ccc23)cc1Cl [Example 159, 4-{3-Chloro-4-[(1-methyl-1H-imidazol-2-yl)sulfanyl]anilino}-7-{5-[(4-hydroxy-1-piperidinyl)methyl]-2-thienyl}-3-quinolinecarbonitrile] | 147 to 149 °C
7 | Cn1ccnc1Sc1ccc(Nc2c(C#N)cnc3cc(-c4ccc(CN5CCCCC5)s4)ccc23)cc1Cl [Example 160, 4-{3-Chloro-4-[(1-methyl-1H-imidazol-2-yl)sulfanyl]anilino}-7-[5-(1-piperidinylmethyl)-2-thienyl]-3-quinolinecarbonitrile] | 100 °C (dec.)
8 | Cn1ccnc1Sc1ccc(Nc2c(C#N)cnc3cc(-c4ccc(CN5CCN(CCO)CC5)s4)ccc23)cc1Cl [Example 161, 4-{3-Chloro-4-[(1-methyl-1H-imidazol-2-yl)sulfanyl]anilino}-7-(5-{[4-(2-hydroxyethyl)-1-piperazinyl]methyl}-2-thienyl)-3-quinolinecarbonitrile] | 145 to 147 °C
9 | N#Cc1cnc2cc(-c3cc(CN4CCOCC4)c(CN4CCOCC4)s3)ccc2c1Nc1ccc(Oc2ccccc2)cc1 [Example 168, 7-[4,5-Bis(4-morpholinylmethyl)-2-thienyl]-4-(4-phenoxyanilino)-3-quinolinecarbonitrile] | 158 to 160 °C

The remaining lines, values ahead:

Row | melting point | Structure (SMILES)
10 | 173 to 175 °C | Cn1ccnc1Sc1ccc(Nc2c(C#N)cnc3cc(-c4cc(CN5CCOCC5)c(CN5CCOCC5)s4)ccc23)cc1Cl [Example 169, 7-[4,5-Bis(4-morpholinylmethyl)-2-thienyl]-4-{3-chloro-4-[(1-methyl-1H-irnidazol-2-yl)sulfanyl]anilino}-3-quinolinecarbonitrile]
11 | 130 °C (dec.) | Cn1ccnc1Sc1ccc(Nc2c(C#N)cnc3cc(-c4ccc(C=O)cn4)ccc23)cc1Cl [Example 170, 4-{3-Chloro-4-[(1-methyl-1H-imidazol-2-yl)sulfanyl]anilino}-7-(5-formyl-2-pyridinyl)-3-quinolinecarbonitrile]
12 | 125 to 130 °C | CCN1CCN(Cc2ccc(-c3ccc4c(Nc5ccc(Sc6nccn6C)c(Cl)c5)c(C#N)cnc4c3)nc2)CC1 [Example 171, 4-{3-Chloro-4-[(1-methyl-1H-imidazol-2-yl)sulfanyl]anilino}-7-{5-[(4-ethyl-1-piperazinyl)methyl]-2-pyridinyl}-3-quinolinecarbonitrile]
13 | 194 to 196 °C | Cn1ccnc1Sc1ccc(Nc2c(C#N)cnc3cc(-c4ccc(CN5CCC(O)CC5)cn4)ccc23)cc1Cl [Example 172, 4-{3-Chloro-4-[(1-methyl-1H-imidazol-2-yl)sulfanyl]anilino}-7-{5-[(4-hydroxy-1-piperidinyl)methyl]-2-pyridinyl}-3-quinolinecarbonitrile]
14 | 183 to 185 °C | Cn1ccnc1Sc1ccc(Nc2c(C#N)cnc3cc(-c4ccc(CN5CCC(N6CCCC6)CC5)cn4)ccc23)cc1Cl [Example 173, 4-{3-Chloro-4-[(1-methyl-1H-imidazol-2-yl)sulfanyl]anilino}-7-(5-{[4-(1-pyrrolidinyl)-1-piperidinyl]methyl}-2-pyridinyl)-3-quinolinecarbonitrile]
15 | 166 to 168 °C | Cn1ccnc1Sc1ccc(Nc2c(C#N)cnc3cc(-c4ccc(CN5CCC(C(=O)O)CC5)cn4)ccc23)cc1Cl [Example 175, 1-{[6-(4-{3-chloro-4-[(1-methyl-1H-imidazol-2-yl)sulfanyl]anilino}-3-cyano-7-quinolinyl)-3-pyridinyl]methyl}-4-piperidinecarboxylic acid]
16 | 150 °C (dec.) | COc1cc(Nc2c(C#N)cnc3cc(-c4ccc(CN5CCC(C(=O)O)CC5)cn4)ccc23)c(Cl)cc1Cl [Example 177, 1-{6-[3-Cyano-4-(2,4-dichloro-5-methoxyphenylarino)-quinolin-7-yl]-pyridin-3-ylmethyl}-piperidine-4-carboxylic acid]
17 | 205 to 207 °C | Cn1ccnc1Sc1ccc(Nc2c(C#N)cnc3cc(-c4ccc(Cl)cn4)ccc23)cc1Cl [Example 178, 4-({3-Chloro-4-[(1-methyl-1H-imidazol-2-yl)sulfanyl]phenyl}amino)-7-(5-chloro-2-pyridinyl)-3-quinolinecarbonitrile]
18 | 150 °C (dec.) | CCN1CCN(c2ccc(-c3ccc4ncc(C#N)c(Nc5ccc(Sc6nccn6C)c(Cl)c5)c4c3)nc2)CC1 [Example 181, 4-({3-Chloro-4-[(1-methyl-1H-imidazol-2-yl)sulfanyl]phenyl}amino)-6-[5-(4-ethyl-1-piperazinyl)-2-pyridinyl]-3-quinolinecarbonitrile]
19 | 238 to 241 °C | Cn1ccnc1Sc1ccc(Nc2c(C#N)cnc3ccc(-c4ccc(CN5CCOCC5)cn4)cc23)cc1Cl [Example 182, 4-({3-Chloro-4-[(1-methyl-1H-imidazol-2-yl)sulfanyl]phenyl}amino)-6-[5-(4-morpholinylmethyl)-2-pyridinyl]-3-quinolinecarbonitrile]
20 | 260 to 262 °C | CN1CCN(Cc2ccc(-c3ccc4ncc(C#N)c(Nc5ccc(Sc6nccn6C)c(Cl)c5)c4c3)nc2)CC1 [Example 183, 4-({3-Chloro-4-[(1-methyl-1H-imidazol-2-yl)sulfanyl]phenyl}amino)-6-{5-[(4-methyl-1-piperazinyl)methyl]-2-pyridinyl}-3-quinolinecarbonitrile]
21 | 276 to 278 °C | Cn1ccnc1Sc1ccc(Nc2c(C#N)cnc3ccc(-c4ccc(N5CCOCC5)nc4)cc23)cc1Cl [Example 184, 4-({3-Chloro-4-[(1-methyl-1H-imidazol-2-yl)sulfanyl]phenyl}amino)-6-[6-(4-morpholinyl)-3-pyridinyl]-3-quinolinecarbonitrile]
